We go through eight compounds from patent publication US9493506B2 (Enanta Pharmaceuticals, Inc., priority 2010, dated 2016).

One data set in a line: dog PK experiment. Particulars: in vivo; for bioavailability: dog PK experiment, 3 mg/kg, read-out: F value (bioavailability); for AUC: dog, dosed at 3 mg/kg. An excerpt:
Those of ordinary skill in the art are aware of the biological assays utililized to test the compounds of the invention. Regarding bioavailability data (F values), a more thorough explanation can be found in Rowland, M and Tozer, T Clinical Pharmacokinetics: Concepts and Applications Lippincott, Williams & Wilkins 3rd ed. 1995, (specifically covered on page 43).

In data set [1] the test system is HCV replicon with a R155K mutation in a 1a-H77 background. Description: transient replicon assay, R155K mutation in 1a-H77 background. The data set is classed as cell-based, hepatitis C virus (genotype 1a-H77). The following applies: Hepatitis C virus, read-out: EC50 in a transient replicon assay with a R155K mutation in a 1a-H77 background. In short, it runs like this: (§1)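 Transient transfection of mutant replicon RNA (1a-H77 with NS2–NS5B, or 1b-N with NS3–NS5B plus E1202G/S2204I) by electroporation into IFN-cured Huh7 cells, plated at 7.5×10^3 cells per well in DMEM with 5% FBS. Serial compound dilutions added 4 h post-transfection (0.5% DMSO final).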
(In general: In antiviral work, replicon cells carry a viral genome segment that copies itself.)

Data set [2] deals with HCV replicon with a D168E mutation in a 1a-H77 background. Description: transient replicon assay, D168E mutation in 1a-H77 background. The data set is classed as cell-based, hepatitis C virus (genotype 1a-H77). The following applies: Hepatitis C virus, read-out: EC50 in a transient replicon assay with a D168E mutation in a 1a-H77 background. In short, it runs like this: as §1

In data set [3] the test system is HCV replicon with a D168V mutation in a 1a-H77 background. In words: transient replicon assay, D168V mutation in 1a-H77 background. The data set is classed as cell-based, hepatitis C virus (genotype 1a-H77). The following applies: Hepatitis C virus, read-out: EC50 in a transient replicon assay with a D168V mutation in a 1a-H77 background. In short, it runs like this: as §1

One may read the bioavailability as dose-corrected exposure relative to a reference, in per cent. By AUC is commonly meant concentration integrated over time. Read a high AUC as high exposure. What is called EC50 is the concentration at which the effect is half-maximal. `Cc1cc(C(=O)N[C@H]2CCCCC/C=C\[C@@H]3C[C@@]3(C(=O)NS(=O)(=O)C3CC3)NC(=O)[C@@H]3C[C@@H](Oc4nc5cc(F)ccc5nc4C)CN3C2=O)no1` [Example 22, N-((2R,6S,13aS,14aR,16aS,Z)-14a-(cyclopropylsulfonylcarbamoyl)-2-(7-fluoro-3-methylquinoxalin-2-yloxy)-5,16-dioxo-1,2,3,5,6,7,8,9,10,11,13a,14,14a,15,16,16a-hexadecahydrocyclopropa[e]pyrrolo[1,2-a][1,4]diazacyclopentadecin-6-yl)-5-methylisoxazole-3-carboxamide]: the bioavailability in “dog PK experiment” is greater than 100%. In the data set “dog PK experiment”, this compound registered an AUC of 54000 ng·h/mL. Further, the concentration giving a half-maximal response (EC50) in data set [1] lay in the range of 1 to 10 nM; in data set [2] it was 3 to 20 nM; in data set [3] it was 25 to 50 nM.

As for `Cc1cc(C(=O)N[C@H]2CCCCC/C=C\[C@@H]3C[C@@]3(C(=O)NS(=O)(=O)C3(C)CC3)NC(=O)[C@@H]3C[C@@H](Oc4nc5cc(F)ccc5nc4C)CN3C2=O)no1` [Example 23, N-((2R,6S,13aS,14aR,16aS,Z)-2-(7-fluoro-3-methylquinoxalin-2-yloxy)-14a-(1-methylcyclopropylsulfonylcarbamoyl)-5,16-dioxo-1,2,3,5,6,7,8,9,10,11,13a,14,14a,15,16,16a-hexadecahydrocyclopropa[e]pyrrolo[1,2-a][1,4]diazacyclopentadecin-6-yl)-5-methylisoxazole-3-carboxamide], the bioavailability in “dog PK experiment” is 86%. Also, in the data set “dog PK experiment”, the exposure (AUC) was found to be 201000 ng·h/mL. The EC50 in data set [1] was 1 to 10 nM; in data set [2], 3 to 20 nM; in data set [3], less than 25 nM.

Take `Cc1cc(C(=O)N[C@H]2CCCCC/C=C\[C@@H]3C[C@@]3(C(=O)NS(=O)(=O)C3CC3)NC(=O)[C@@H]3C[C@@H](Oc4nc5c(F)cccc5nc4C)CN3C2=O)no1` [Example 56, N-((2R,6S,13aS,14aR,16aS,Z)-14a-(cyclopropylsulfonylcarbamoyl)-2-(8-fluoro-3-methylquinoxalin-2-yloxy)-5,16-dioxo-1,2,3,5,6,7,8,9,10,11,13a,14,14a,15,16,16a-hexadecahydrocyclopropa[e]pyrrolo[1,2-a][1,4]diazacyclopentadecin-6-yl)-5-methylisoxazole-3-carboxamide]: in “dog PK experiment”, the bioavailability is greater than 100%. The same compound had an area under the curve (AUC) in “dog PK experiment” of 10800 ng·h/mL. The EC50 in data set [1] lay within 1 to 10 nM; in data set [2], 20 to 50 nM; in data set [3], 50 to 250 nM.

For `Cc1cc(C(=O)N[C@H]2CCCCC/C=C\[C@@H]3C[C@@]3(C(=O)NS(=O)(=O)C3(C)CC3)NC(=O)[C@@H]3C[C@@H](Oc4nc5cc(F)cc(Br)c5nc4C)CN3C2=O)no1` [Example 101, N-((2R,6S,13aS,14aR,16aS,Z)-2-(5-bromo-7-fluoro-3-methylquinoxalin-2-yloxy)-14a-(1-methylcyclopropylsulfonylcarbamoyl)-5,16-dioxo-1,2,3,5,6,7,8,9,10,11,13a,14,14a,15,16,16a-hexadecahydrocyclopropa[e]pyrrolo[1,2-a][1,4]diazacyclopentadecin-6-yl)-5-methylisoxazole-3-carboxamide], the bioavailability in “dog PK experiment” is greater than 100%. For the same compound, the AUC in “dog PK experiment” was 84000 ng·h/mL. Further, the results for the EC50 in data set [1], in data set [2] and in data set [3] were less than 1 nM, 3 to 20 nM and less than 25 nM, respectively.

Regarding `Cc1cc(C(=O)N[C@H]2CCCCC/C=C\[C@@H]3C[C@@]3(C(=O)NS(=O)(=O)C3CC3)NC(=O)[C@@H]3C[C@@H](Oc4nc5cc(F)ccc5nc4C(F)(F)F)CN3C2=O)no1` [Example 107, N-((2R,6S,13aS,14aR,16aS,Z)-14a-(cyclopropylsulfonylcarbamoyl)-2-(7-fluoro-3-(trifluoromethyl)quinoxalin-2-yloxy)-5,16-dioxo-1,2,3,5,6,7,8,9,10,11,13a,14,14a,15,16,16a-hexadecahydrocyclopropa[e]pyrrolo[1,2-a][1,4]diazacyclopentadecin-6-yl)-5-methylisoxazole-3-carboxamide], the bioavailability in “dog PK experiment” came to 74%. Further, the area under the curve (AUC) in “dog PK experiment” is 54000 ng·h/mL. For the same compound, the figures for the half-maximal effective concentration (EC50) in data set [1], in data set [2] and in data set [3] were less than 1 nM, less than 3 nM and less than 25 nM, respectively.

With `Cc1cc(C(=O)N[C@H]2CCCCC/C=C\[C@@H]3C[C@@]3(C(=O)NS(=O)(=O)C3(C)CC3)NC(=O)[C@@H]3C[C@@H](Oc4nc5cc(F)ccc5nc4C(F)(F)F)CN3C2=O)no1` [Example 111, N-((2R,6S,13aS,14aR,16aS,Z)-2-(7-fluoro-3-(trifluoromethyl)quinoxalin-2-yloxy)-14a-(1-methylcyclopropylsulfonylcarbamoyl)-5,16-dioxo-1,2,3,5,6,7,8,9,10,11,13a,14,14a,15,16,16a-hexadecahydrocyclopropa[e]pyrrolo[1,2-a][1,4]diazacyclopentadecin-6-yl)-5-methylisoxazole-3-carboxamide], the bioavailability in the data set “dog PK experiment” amounted to 88%. This compound gave an AUC in “dog PK experiment” of 141000 ng·h/mL. The EC50 in data set [1] was less than 1 nM; in data set [2] it was less than 3 nM; in data set [3], less than 25 nM.

Turning to `Cc1cc(C(=O)N[C@H]2CCCCC/C=C\[C@@H]3C[C@@]3(C(=O)NS(=O)(=O)C3CC3)NC(=O)[C@@H]3C[C@@H](Oc4nc5cc(F)ccc5nc4C(C)(F)F)CN3C2=O)no1` [Example 117, N-((2R,6S,13aS,14aR,16aS,Z)-14a-(cyclopropylsulfonylcarbamoyl)-2-(3-(1,1-difluoroethyl)-7-fluoroquinoxalin-2-yloxy)-5,16-dioxo-1,2,3,5,6,7,8,9,10,11,13a,14,14a,15,16,16a-hexadecahydrocyclopropa[e]pyrrolo[1,2-a][1,4]diazacyclopentadecin-6-yl)-5-methylisoxazole-3-carboxamide], the bioavailability in “dog PK experiment” is 63%. In the data set “dog PK experiment”, this compound came in with an AUC of 63000 ng·h/mL. The figures for the EC50 in data set [1], in data set [2] and in data set [3] were less than 1 nM, less than 3 nM and less than 25 nM, respectively.

In the case of `Cc1cc(C(=O)N[C@H]2CCCCC/C=C\[C@@H]3C[C@@]3(C(=O)NS(=O)(=O)C3(C)CC3)NC(=O)[C@@H]3C[C@@H](Oc4nc5cc(F)ccc5nc4C(C)(F)F)CN3C2=O)no1` [Example 119, N-((2R,6S,13aS,14aR,16aS,Z)-2-(3-(1,1-difluoroethyl)-7-fluoroquinoxalin-2-yloxy)-14a-(1-methylcyclopropylsulfonylcarbamoyl)-5,16-dioxo-1,2,3,5,6,7,8,9,10,11,13a,14,14a,15,16,16a-hexadecahydrocyclopropa[e]pyrrolo[1,2-a][1,4]diazacyclopentadecin-6-yl)-5-methylisoxazole-3-carboxamide], the bioavailability in “dog PK experiment” is 64%. The compound also yielded an exposure (AUC) in “dog PK experiment” of 30000 ng·h/mL. The figures for the concentration for a half-maximal effect (EC50) in data set [1], in data set [2] and in data set [3] were less than 1 nM, less than 3 nM and less than 25 nM, respectively.
